Experiments:
[1] = tested on: Cand. albicans ATCC 10231; assay: Fungistatic activity, series dilution test; assay type: cell-based; settings: Sabouraud broth, 2 to 4 days at 26° C.
Description: (§1) V. Determining the Fungistatic Activity
(§2) The fungistatic activity was determined by the series dilution test (microtitre system). Sabouraud broth was used as the nutrient medium. The inoculum amounted to about 10^4 to 10^5 CFU/ml (CFU=colony-forming units); the incubation period was 2 to 4 days at 26° C.
(§3) The lowest concentration which allows no visible growth (minimum inhibitory concentration MIC) was determined.
(§4) The abovementioned compounds B, E, G, I, K, L, N, Q and R were tested. The MIC is given in μg/ml.

[2] = tested on: Sacch. carisbergensis ATCC 9080; assay: Fungistatic activity, series dilution test; assay type: cell-based; settings: Sabouraud broth, 2 to 4 days at 26° C.
Description: as §1, §2, §3, §4

[3] = tested on: Rhod. rubra 49; assay: Fungistatic activity, series dilution test; assay type: cell-based; settings: Sabouraud broth, 2 to 4 days at 26° C.
Description: as §1, §2, §3, §4

[4] = tested on: Pen. notatum CBS 19746; assay: Fungistatic activity, series dilution test; assay type: cell-based; settings: Sabouraud broth, 2 to 4 days at 26° C.
Description: as §1, §2, §3, §4

[5] = tested on: Trich. mentagrophytes ATCC 9129; assay: Fungistatic activity, series dilution test; assay type: cell-based; settings: Sabouraud broth, 2 to 4 days at 26° C.
Description: as §1, §2, §3, §4

[6] = tested on: Asp. niger ATCC 16404; assay: Fungistatic activity, series dilution test; assay type: cell-based; settings: Sabouraud broth, 2 to 4 days at 26° C.
Description: as §1, §2, §3, §4

[7] = tested on: 14C-acetate incorporation into the steroids which can be precipitated with digitonin (cholesterol biosynthesis); assay: Inhibition of 14C-acetate incorporation into the steroids which can be precipitated with digitonin; assay type: cell-based; settings: for IC50: 14C-acetate incorporation
Text: I. Measuring the Inhibition of ^14C-acetate incorporation into the steroids which can be precipitated with digitonin: The inhibitory effect was investigated using the method described in J. Lipid. Res. 37, 148-157 [1996] at test concentrations of 10^−8 and 10^−9 mol/l.

[8] = Lipid reduction in the normolipaemic golden hamster; assay type: in vivo; settings: dose 5.87 mg/kg/day, compared with control group
Description: III. Lipid Reduction in the Normolipaemic Golden Hamster This was determined using the method described in J. Lipid. Res. 38, 564-575, (1997). At the end of the experiment the total cholesterol, β-lipoprotein-cholesterol and HDL-cholesterol were determined and compared with the values of a control group which were fed without any test substance. The lipid-lowering activity of the abovementioned compounds E, G and I was tested.

[9] = target: T1, 2,3-epoxysqualene-lanosterol-cyclase (Rattus norvegicus, UniProt P48450); assay: In-vivo activity in the rat after oral administration: 2,3-epoxysqualene level in the liver
T1 construct: Measuring the in-vivo Activity in the Rat after Oral Administration; from tissue; host or cells: living rat; 2,3-epoxysqualene measured in the liver
T1 sequence (P48450 1-733): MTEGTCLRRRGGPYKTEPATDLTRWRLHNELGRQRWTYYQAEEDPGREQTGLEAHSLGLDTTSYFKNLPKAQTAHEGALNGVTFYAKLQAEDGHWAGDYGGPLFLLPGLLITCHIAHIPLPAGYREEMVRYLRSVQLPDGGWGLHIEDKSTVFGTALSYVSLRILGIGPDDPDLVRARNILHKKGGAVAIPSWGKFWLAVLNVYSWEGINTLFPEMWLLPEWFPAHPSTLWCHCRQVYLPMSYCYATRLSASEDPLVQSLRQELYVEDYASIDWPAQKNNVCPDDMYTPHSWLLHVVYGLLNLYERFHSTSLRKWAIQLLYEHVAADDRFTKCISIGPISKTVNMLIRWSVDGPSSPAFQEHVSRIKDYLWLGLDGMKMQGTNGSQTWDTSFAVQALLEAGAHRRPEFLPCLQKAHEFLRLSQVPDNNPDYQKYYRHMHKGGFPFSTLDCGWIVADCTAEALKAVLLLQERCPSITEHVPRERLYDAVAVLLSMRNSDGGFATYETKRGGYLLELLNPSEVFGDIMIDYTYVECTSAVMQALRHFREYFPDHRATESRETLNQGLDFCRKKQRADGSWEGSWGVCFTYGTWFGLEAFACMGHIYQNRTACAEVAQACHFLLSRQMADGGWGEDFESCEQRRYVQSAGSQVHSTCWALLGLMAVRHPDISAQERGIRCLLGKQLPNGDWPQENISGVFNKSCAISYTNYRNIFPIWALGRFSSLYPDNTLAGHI
Description: II. Measuring the in-vivo Activity in the Rat after Oral Administration
Inhibiting the enzyme 2,3-epoxysqualene-lanosterol-cyclase causes an increase in the 2,3-epoxisqualene levels in the liver and plasma. The quantity of 2,3-epoxysqualene formed therefore serves as a direct measurement of the potency on the animal as a whole. The amounts were determined using the method described in J. Lipid. Res. 38, 564-575, [1997] at t=3 or 8 hours after administration of the substance in concentrations of c=0.01, 0.03, 0.1, 0.3 and 1.0 mg/kg. Table 3 which follows gives the results obtained for the abovementioned substances A, B, C, E, G, H, O and R by way of example.
In the control animals there were no measurable 2,3-epoxisqualene levels under these conditions.

CCN(CC)Cc1ccc([C@H]2CC[C@H](N(C)C(=O)Oc3ccc(Cl)cc3)CC2)cc1.Cl [L, trans-O-(4-chlorophenyl)-N-4-[4-(diethylaminomethyl)-phenyl]cyclohexyl-N-methylcarbamate-hydrochloride]
MIC Cand. [1]: 32 µg/mL
MIC Sacc. [2]: 128 µg/mL
MIC Rhod. [3]: 8 µg/mL
MIC Pen. [4]: 64 µg/mL
MIC Trich. [5]: 1 µg/mL
MIC Asp. [6]: 32 µg/mL
percentage inhibition of 14C-acetate incorporation ([7]; test concentration 10^−8 mol/l): −83%
percentage inhibition of 14C-acetate incorporation ([7]; test concentration 10^−9 mol/l): −53%

C=CCN(C)Cc1ccc([C@H]2CC[C@H](N(C)C(=O)Oc3ccc(Cl)cc3)CC2)cc1 [M, trans-O-(4-chlorophenyl)-N-methyl-N-4-[4-(N-methyl-N-allylaminomethyl)phenyl]cyclohexylcarbamate]
percentage inhibition of 14C-acetate incorporation ([7]; test concentration 10^−8 mol/l): −93%
percentage inhibition of 14C-acetate incorporation ([7]; test concentration 10^−9 mol/l): −74%

Cc1ccc(OC(=O)N(C)[C@H]2CC[C@H](c3ccc(CN(C)C)cc3)CC2)cc1.Cl [O, trans-N-4-[4-(dimethylaminomethyl)phenyl]cyclohexyl-N-methyl-O-(4-methylphenyl)carbamate-hydrochloride]
HDL-cholesterol [8]: −12.7%
Total cholesterol [8]: −17.3%
β-Lipoprotein-cholesterol [8]: −22.5%
2,3-epoxysqualene concentration in the liver (rat) ([9]; 0.1 mg/kg oral, 3 h after administration): 53.4 µg/g
2,3-epoxysqualene concentration in the liver (rat) ([9]; 0.1 mg/kg oral, 8 h after administration): 94.3 µg/g
2,3-epoxysqualene concentration in the liver (rat) ([9]; 0.3 mg/kg oral, 3 h after administration): 72.6 µg/g
2,3-epoxysqualene concentration in the liver (rat) ([9]; 0.3 mg/kg oral, 8 h after administration): 113.2 µg/g
2,3-epoxysqualene concentration in the liver (rat) ([9]; 1.0 mg/kg oral, 3 h after administration): 117.9 µg/g
2,3-epoxysqualene concentration in the liver (rat) ([9]; 1.0 mg/kg oral, 8 h after administration): 224.8 µg/g
IC50 [7]: 0.8 nM
percentage inhibition of 14C-acetate incorporation ([7]; test concentration 10^−8 mol/l): −83%
percentage inhibition of 14C-acetate incorporation ([7]; test concentration 10^−9 mol/l): −57%

Cc1ccc(OC(=S)N(C)[C@H]2CC[C@H](c3ccc(CN(C)C)cc3)CC2)cc1.Cl [P, trans-N-4-[4-(dimethylaminomethyl)phenyl]cyclohexyl-N-methyl-O-(4-methylphenyl)thiocarbamate-hydrochloride]
percentage inhibition of 14C-acetate incorporation ([7]; test concentration 10^−8 mol/l): −83%
percentage inhibition of 14C-acetate incorporation ([7]; test concentration 10^−9 mol/l): −60%

CN(C)Cc1ccc([C@H]2CC[C@H](N(C)C(=O)c3ccc(Cl)cc3)CC2)cc1 [V, reference compound]
IC50 [7]: 3.8 nM
percentage inhibition of 14C-acetate incorporation ([7]; test concentration 10^−8 mol/l): −59%
percentage inhibition of 14C-acetate incorporation ([7]; test concentration 10^−9 mol/l): −23%

Cc1ccc(CC(=O)O[C@H]2CC[C@H](c3ccc(CN(C)C)cc3)CC2)cc1 [W, trans-O-(p-tolylacetyl)-4-(4-dimethylaminomethylphenyl)-cyclohexanol, reference compound]
IC50 [7]: 9.6 nM
inhibition at 0.01 µM ([7]; test concentration 10^−8 mol/l, read-out: percentage inhibition of 14C-acetate incorporation): 72%
inhibition at 0.001 µM ([7]; test concentration 10^−9 mol/l, read-out: percentage inhibition of 14C-acetate incorporation): 21%
